# Data reported in patent US20240180900A1, “COMPOUNDS AND METHODS FOR THE TARGETED DEGRADATION OF ANDROGEN RECEPTOR” (Arvinas Operations, Inc., priority 2022, published 2024).
# What was measured:
# [1] = preclinical exposure in the VCaP tumor xenograft mouse model; settings: CB17/scid, in vivo, oral, 1 mg/kg/day, read-out: AUCinf, minimally efficacious preclinical exposure
# Procedure: Exposure at the 100 mg QD dose (N=6) with mean steady-state Compound A AUC0-24=4,610 ng*hr/mL on Cycle 1 Day 21 achieved the minimally efficacious preclinical exposure associated with tumor growth inhibition in the VCaP tumor xenograft mouse model (AUCinf=3,930 ng*hr/mL at 1 mg/kg/day dose; data not included).
# [2] = biological target: T1, AR (LNCaP cells, AR mutation T878A) (Homo sapiens, UniProt P10275, T878A); assay: AR degradation assay in LNCaP cells; type: cell-based; settings: 24 hours of treatment
# T1 construct: endogenous in cells; host or cells: LNCaP
# Procedure: FIG. 2 is an analysis of Compound A in in vitro AR degradation assays conducted in VCaP cells and LNCaP cancer cells that harbor AR amplification and the AR mutation (T878A) mutation, respectively.
# To determine the pharmacological effect of Compound A in vitro, AR degradation assays were conducted in VCaP (vertebral-cancer of the prostate) cancer cells and LNCaP (lymph node carcinoma of the prostate) cancer cells that harbor AR amplification and the AR mutation (T878A) mutation, respectively.
# To determine the pharmacological effect of Compound A in vitro, AR degradation assays were conducted in VCaP cells and LNCaP prostate cancer cells that harbor AR amplification and the AR mutation (T878A) mutation, respectively.
# AR WT = biological target: T2, AR WT (Homo sapiens, UniProt P10275); assay: AR degradation in T-Rex-293 cell line, wild-type AR; type: cell-based; settings: T-Rex-293, ELISA
# T2 construct: expressed in transfected cells; host or cells: T-REx-293
# Procedure: (§1) FIG. 3 is a graph showing Compound A's ability to degrade clinically relevant mutated forms AR.
# Plasmids expressing AR WT or the indicated AR mutants were stably transfected into HEK293 cells. Each cell line was treated with indicated concentrations of Compound A for 24 hours. AR levels were determined by AR ELISA without background subtraction. […]
# (§2) To assess the ability of Compound A to degrade variants of the AR, vectors expressing wild-type AR or mutant AR proteins harboring clinically observed mutations in the ligand binding domain (13 with single amino acid changes or 4 with 2 amino acid changes) (Azad A. A., Volik S. V., Wyatt A. W., et al. Androgen receptor gene aberrations in circulating cell-free DNA: biomarkers of therapeutic resistance in castration-resistant prostate cancer. Clin Cancer Res. 2015; 21:2315-2324; Robinson D., Van Allen E. M., Wu Y. M., et al. Integrative clinical genomics of advanced prostate cancer. Cell. 2015; 161:1215-1228; Ledet E. M., Lilly M. B., Sonpavde G., et al. Comprehensive analysis of AR alterations in circulating tumor DNA from patients with advanced prostate cancer. Oncologist.
# PSA = assay: intracellular PSA ELISA in VCaP cells; type: cell-based; settings: Homo sapiens, CSS + 0.1 nM R1881, 48 hours, read-out: IC50, inhibiting PSA expression
# Procedure: Intracellular prostate specific antigen (PSA) levels were determined using a PSA enzyme-linked immunosorbent assay (ELISA). […] The cell proliferation was determined using the CellTiter-Glo® assay. […] The CaspaseGlo® assay was carried out to measure the level of apoptosis in cells.
# To evaluate the pharmacological effect of Compound A in vitro, PSA, cell proliferation, and apoptosis assays were carried out in VCaP cells.
# AR T878A/D891H = biological target: T3, AR T878A/D891H (Homo sapiens, UniProt P10275, D891H/T878A); assay: AR degradation in T-Rex-293 cell line, T878A/D891H; type: cell-based; settings: T-Rex-293, ELISA
# T3 construct: expressed in transfected cells; host or cells: T-REx-293
# Source text: as §1, §2
# T1 sequence (P10275 whole entry T878A): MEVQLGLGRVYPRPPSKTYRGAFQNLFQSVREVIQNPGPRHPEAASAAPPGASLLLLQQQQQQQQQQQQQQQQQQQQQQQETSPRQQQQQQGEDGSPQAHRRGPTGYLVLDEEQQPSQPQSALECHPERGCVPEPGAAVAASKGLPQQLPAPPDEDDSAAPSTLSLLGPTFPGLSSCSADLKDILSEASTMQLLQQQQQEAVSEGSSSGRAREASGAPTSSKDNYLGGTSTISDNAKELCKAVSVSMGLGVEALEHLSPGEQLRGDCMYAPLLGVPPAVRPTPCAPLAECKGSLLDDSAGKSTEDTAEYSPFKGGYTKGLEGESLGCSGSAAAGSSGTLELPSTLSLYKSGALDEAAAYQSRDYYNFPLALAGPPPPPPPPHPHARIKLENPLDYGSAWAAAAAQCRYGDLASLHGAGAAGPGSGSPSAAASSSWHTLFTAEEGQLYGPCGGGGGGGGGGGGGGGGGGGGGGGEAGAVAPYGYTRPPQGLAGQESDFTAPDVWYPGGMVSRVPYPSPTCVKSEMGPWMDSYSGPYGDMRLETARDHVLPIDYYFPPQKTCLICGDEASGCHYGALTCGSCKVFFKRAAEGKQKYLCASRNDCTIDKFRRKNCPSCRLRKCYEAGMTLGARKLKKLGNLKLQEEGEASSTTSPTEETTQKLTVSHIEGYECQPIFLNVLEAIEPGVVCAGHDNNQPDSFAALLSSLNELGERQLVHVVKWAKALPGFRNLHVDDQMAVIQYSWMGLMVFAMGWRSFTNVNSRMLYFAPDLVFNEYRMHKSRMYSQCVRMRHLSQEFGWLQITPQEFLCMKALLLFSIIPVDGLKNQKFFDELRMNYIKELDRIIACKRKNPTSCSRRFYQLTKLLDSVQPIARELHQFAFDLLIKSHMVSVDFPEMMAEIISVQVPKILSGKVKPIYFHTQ
# T3 sequence (P10275 whole entry T878A/D891H): as the sequence (P10275 whole entry T878A) above, with D891H counted along it
# T2 sequence (P10275 whole entry): as the sequence (P10275 whole entry T878A) above, with A878T counted along it
smiles,measurement,setting,value
"COc1cc(O[C@H]2C(C)(C)[C@H](NC(=O)c3ccc(N4CCC(CN5CCN(c6ccc(C(=O)N[C@H]7CCC(=O)NC7=O)c(F)c6)CC5)CC4)cc3)C2(C)C)ccc1C#N [Compound A, 4-(4-((1-(4-(((1R,3R)-3-(4-cyano-3-methoxyphenoxy)-2,2,4,4-tetramethylcyclobutyl)carbamoyl)phenyl)piperidin-4-yl)methyl)piperazin-1-yl)-N—((S)-2,6-dioxopiperidin-3-yl)-2-fluorobenzamide]",AUC(0-inf),[1],3930 ng·h/mL
same,DC50,[2],≤ 1.3 nM
same,Dmax,[2],≥ 91%
same,DC50,AR WT,1.5 nM
same,IC50,PSA,4 nM
same,DC50,AR T878A/D891H,3.4 nM
